Source: PMC12624434 (ACS Pharmacology & Translational Science, 2025)
Values joined by “and” are separate entries in the source; they are usually repeats but may differ in a detail not shown here. Equal values may be shown once. “Also recorded” adds a separate entry of the source. Read-outs that look alike come from different tables or passages of the source.

Columns and labels:
[1] = system: VEGFA-induced aversion to mechanical stimuli in rats; assay: Conditioned place aversion (CPA) to 10 g vF stimulation after VEGFA; format: in vivo, rat
Experimental: The procedure was performed as reported previously. Briefly, rats were gently restrained in a fabric cloth and given an intraplantar injection in the hind-paw containing VEGFA165 (10 nM) and compound (EG00229 or 12h, at 30 or 10 μM) alone or in combination in 50 μL of PBS vehicle (NaCl 137 mM, KCl 2.5 mM, Na2HPO4 10 mM, and KH2PO4 1.8 mM), using a 31G needle.
The experiments were conducted in a two-chamber device based on the protocols from and as previously described. The protocol includes 4 × 10 min of sequential tests of preconditioning (10 min), conditioning (2 × 10 min) and testing (10 min). During preconditioning, the animal is allowed free access to two connected chambers (30 × 30 × 19 cm), each associated with a scented lip-balm applied to the walls. Immediately following preconditioning, a divider was applied between the chambers, and the rats were conditioned to either stimuli or no-stimuli for 10 min in each chamber. The stimuli consisted of repeated stimulation with a 10 g VF-filament every 30 s for the 10 min that the subject was contained in that chamber, while no stimuli (NS) was applied in the other chamber. The order and side of conditioning was alternated between subjects. Following the conditioning, the divider was removed, and the rat was allowed free access to both chambers for the 10 min test. Animal movements in each chamber were recorded by a camera above, and the duration of time spent in each chamber was recorded during preconditioning and test phase. Decreased time spent in a chamber during the test versus preconditioning indicated avoidance for that chamber and was calculated as a CPA-score: time in VF-chamber during preconditioning – time in VF-chamber during test.

NRP1 b1 domain = molecular target: T1, NRP1 b1 domain (Homo sapiens, UniProt O14786); assay: SPR binding to immobilized NRP1 b1 domain (Biacore 4000, CM5 chip)
T1 construct: with the purified recombinant NRP1 b1 domain immobilized on the chip; inferred from Ni-NTA capture), TEV-cleavable (cleaved yes); made in house; host or cells: E. coli Rosetta (DE3)
T1 sequence (O14786 275-424 limits assumed): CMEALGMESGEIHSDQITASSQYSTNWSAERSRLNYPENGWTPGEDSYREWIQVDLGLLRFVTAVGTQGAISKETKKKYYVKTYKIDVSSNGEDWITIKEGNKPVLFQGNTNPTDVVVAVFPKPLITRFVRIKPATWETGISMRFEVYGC
Experimental: Surface Plasmon Resonance experiments were performed using a Biacore 4000 instrument at a constant temperature of 25 °C. Sensor chips, buffer stock solutions, and immobilization reagents were purchased from GE Healthcare. Recombinant human NRP1-b1 was produced in-house and recombinant human NRP1-ECD (extracellular domain) was purchased from ACRO (catalogue number NR1-H5A228). All other reagents were obtained from Sigma.
PBS containing 0.05% surfactant P20 was used as the running buffer during immobilization. NRP1-b1 was immobilized onto a CM5 chip using random amine coupling. The four flow cells were treated in the same way to optimize throughput. In summary, spots 1 and 2 were activated with the coupling reagents EDC and NHS for 10 min. NRP1-b1 at a concentration of 20 μg/mL in 10 mM sodium acetate pH 5 was injected onto the surface for 10 and 5 min in spots 1 and 2, respectively to generate surfaces with high and low density. […] The unmodified spot 3 was used as a reference.
PBS buffer containing 0.05% surfactant P20 and 3% DMSO was used as the running buffer and sample dilution buffer throughout these experiments. Dose–responses were obtained using a 2-fold sample dilution from 16 μM to 31 nM, using an injection time of 60 s. Surface regeneration between injections was not necessary, but a wash step with 1 M NaCl was included after injection of the highest concentration sample for each compound.
Binding curves were corrected for variations in DMSO concentration and normalized by molecular weight. Binding results to high and low-density surfaces were processed independently and the average ± SD is presented. K Ds reported are derived from steady-state binding responses and therefore correspond to the equilibrium binding affinity of the compounds.

NRP1-a1,b1 = molecular target: T2, NRP1-a1,b1 (Homo sapiens, UniProt O14786); assay: bt-VEGFA cell-free competition binding assay (plate-based)
T2 sequence (O14786 273-427 limits assumed): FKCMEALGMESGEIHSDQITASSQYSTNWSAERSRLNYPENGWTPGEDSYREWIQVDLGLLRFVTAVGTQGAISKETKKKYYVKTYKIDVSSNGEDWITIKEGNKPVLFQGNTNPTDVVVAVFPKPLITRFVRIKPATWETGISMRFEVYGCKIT
Experimental: The assay was conducted as previously described. Briefly, the 96-well plates were precoated with NRP1 protein at 3 μg/mL overnight at 4 °C. On the following day, the plates were treated with blocking buffer (PBS containing 1%1% BSA) and washed three times with wash buffer (PBS containing 0.1% Tween-20). The various concentrations of compounds diluted in PBS containing 1%1% DMSO were added, followed by addition of 0.25 nM of bt-VEGFA165. After 2 h of incubation at room temperature, the plates were washed three times with wash buffer. The bound bt-VEGFA165 to NRP1 was detected by streptavidin– horseradish peroxidase conjugates and the enzyme substrate, and measured using a Tecan Genius plate reader at 450 nm with a reference wavelength at 595 nm. Nonspecific binding was determined in the absence of NRP1-coated wells of the plates.

[2] = system: T180/Y182 phosphorylated p38 (P-p38) in retinal endothelium; assay: VEGFA-induced p38 phosphorylation in ex vivo mouse retina (immunostaining); format: cell-based
Experimental: Retinae from C57Bl/6J mice were fixed in 4% formaldehyde in PBS for 1 h and washed three times with PBS. After 1 h in blocking buffer (3% Triton X-100, 1%1% Tween and 0.5% BSA in 2× PBS), retinae were immunostained by incubation with rabbit anti-P-p38 MAPK (Thr180/Tyr182) antibody (Cell Signaling) and biotin-conjugated Isolectin B4 (IB4, Merck) overnight at 4 °C, followed by Alexa Fluor 555–conjugated goat antirabbit antibodies (Invitrogen) and Alexa Fluor 488-conjugated streptavidin (Invitrogen) respectively for 1 h at rt. Images were acquired with a Zeiss Axioskop 2 microscope, using a ph3 Plan-Apochromat 63×/1.40 oil objective, Hamamatsu camera and the HCImage software. Each image was acquired as an RGB color image and then processed with ImageJ software version 1.52a (NIH Bethesda). Channels were split to separate the IB4 staining (green channel) from the P-p38 staining (red channel). The threshold function was used on the IB4 image to determine the area of the vessels and to generate a mask that was restored in the red channel image to measure the area of the vessels positive to P-p38 staining. The P-p38 staining area was normalized against the area stained with IB4. Three retinae from three different mice per condition were used for analysis. One-way ANOVA was used to compare the different treatments.

kon (NRP1 b1 domain; Figure 2B, SPR-derived binding parameters, read-out: ka): 1.16e+06 M⁻¹ s⁻¹
Kd (NRP1 b1 domain; steady-state binding, 25 °C, mean ± SD, read-out: SPR NRP1 b1 domain equilibrium KD): 600 ± 100 nM
IC50 (NRP1-a1,b1; 0.25 nM bt-VEGFA165, mean ± SEM, at least three independent experiments, read-out: Competition analysis bt-VEGFA, cell-free NRP1-a1,b1 IC50): 320 ± 40 nM
IC50 (NRP1-a1,b1; plate-based assay, Figure 2D, read-out: IC50, competitive inhibition of bt-VEGFA binding to NRP1): 362 nM and < 500 nM
Compound: N=C(N)NCCC[C@H](NC(=O)c1sccc1NS(=O)(=O)c1cc(NCc2csc(N3CCNCC3)n2)cc2cccnc12)C(=O)O.O=CO [Compound 12h, (2S)-5-Guanidino-2-[[3-[[6-[(2-piperazin-1-ylthiazol-4-yl)-methylamino]-8-quinolyl]-sulfonylamino]-thiophene-2-carbonyl]-amino]-pentanoic Acid, Formic Acid]
VEGFA-induced stimulus-aversion (time in vF-conditioned chamber), Figure S5 ([1]; 10 μM coinjected with VEGFA 10 nM): blocked by 10 μM 12h in males
effect on VEGFA-induced aversion in CPA-paradigm ([1]; 10 μM, male rats): showed significant reduction in VEGFA-induced aversion
VEGFA-induced aversion (time in vF-conditioned chamber) ([1]; 30 μM coinjected with VEGFA 10 nM, male and female rats): prevented significant stimulus-aversion from VEGFA in both sexes; also recorded: the aversion was prevented
CPA-score vs VEGFA/vehicle ([1]; 30 μM, female rats): did not show a statistically significant improvement
p38 phosphorylation when added alone ([2]; 30 μM alone, 5 min): did not induce p38 phosphorylation
effect on VEGFA-induced p38 phosphorylation in retinal endothelium ([2]; 30 μM, 15 min prior to VEGFA165 stimulation): prevented VEGFA-induced p38 phosphorylation
